Source: ChEMBL document CHEMBL1201862, “PubChem BioAssay data set” (2004)
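Assay format: 96-well plates, 48-hour exposure. At the GI50, growth is halved.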 Active and inactive are the calls of the source. Cut-off read from the data, not from the text of the source: active = GI50 up to about 1.1 µM and inactive = higher.

Experiments:
Test in all cases: NCI-60 cell line screen, 48 h
HT-29 = tested on: HT-29
TK-10 = tested on: TK-10
NCI-H522 = tested on: NCI-H522
MDA-MB-435 = tested on: MDA-MB-435
SK-MEL-5 = tested on: SK-MEL-5
SNB-19 = tested on: SNB-19
786-0 = tested on: 786-0
HL-60 = tested on: HL-60
MDA-N = tested on: MDA-N
KM12 = tested on: KM12
NCI-H23 = tested on: NCI-H23
CAKI-1 = tested on: CAKI-1
SNB-75 = tested on: SNB-75
UO-31 = tested on: UO-31
HCT-15 = tested on: HCT-15
HOP-92 = tested on: HOP-92
SF-295 = tested on: SF-295
NCI-H460 = tested on: NCI-H460
NCI-H226 = tested on: NCI-H226
COLO 205 = tested on: COLO 205

| SMILES | GI50 (HT-29) | GI50 (TK-10) | GI50 (NCI-H522) | GI50 (MDA-MB-435) | GI50 (SK-MEL-5) | GI50 (SNB-19) | GI50 (786-0) | GI50 (HL-60) | GI50 (MDA-N) | GI50 (KM12) | GI50 (NCI-H23) | GI50 (CAKI-1) | GI50 (SNB-75) | GI50 (UO-31) | GI50 (HCT-15) | GI50 (HOP-92) | GI50 (SF-295) | GI50 (NCI-H460) | GI50 (NCI-H226) | GI50 (COLO 205) |
| --- | --- | --- | --- | --- | --- | --- | --- | --- | --- | --- | --- | --- | --- | --- | --- | --- | --- | --- | --- | --- |
| CCC1C(=O)OCc2c1cc1n(c2=O)Cc2cc3ccccc3nc2-1 (configuration not stated) | 29.5 µM (inactive) | > 100 µM (inactive) | 7.73 µM (inactive) | 44.3 µM (inactive) | 5.79 µM (inactive) | 5.13 µM (inactive) | 3.23 µM (inactive) | 1.88 µM (inactive) | 45.6 µM (inactive) | 50.9 µM (inactive) | 2.84 µM (inactive) | 2.17 µM (inactive) | 1.96 µM (inactive) | 2.37 µM (inactive) | 43.4 µM | 13.1 µM (inactive) | 2.38 µM (inactive) | 0.802 µM (active) | 10.8 µM (inactive) | 72.3 µM (inactive) |
| Cc1ccc2c(ccc(/C=C/c3ccc(O)c4ncccc34)[n+]2C)c1 | 12.2 µM (inactive) | 15.6 µM (inactive) | 3.64 µM (inactive) | > 30.4 µM (inactive) | 14.1 µM (inactive) | 12.9 µM (inactive) | 5.57 µM (inactive) | 19.5 µM (inactive) | > 24 µM (inactive) | 9.08 µM (inactive) | 11 µM (inactive) | 5.55 µM (inactive) | 19.5 µM (inactive) | > 33.9 µM (inactive) | 16.1 µM | 14.7 µM (inactive) | 13.8 µM (inactive) | 2.87 µM (inactive) | 24.8 µM (inactive) | 5.38 µM (inactive) |
| CC1(C)CCCCCCCCCC2CC2CCC(C)(C)C1=O (configuration not stated) | 20.3 µM (inactive) | 22.9 µM (inactive) | 15.6 µM (inactive) | 23 µM (inactive) | 22.8 µM (inactive) | 34.6 µM (inactive) | 17.2 µM (inactive) | 22 µM (inactive) | 30.9 µM (inactive) | 18.4 µM (inactive) | 40.5 µM (inactive) | 33.5 µM (inactive) | 28.6 µM (inactive) | 19.6 µM (inactive) | 16.5 µM | 26.3 µM (inactive) | 18.3 µM (inactive) | 21.1 µM (inactive) | 14.2 µM (inactive) | 18.5 µM (inactive) |
| C=CCN1CCC(O)(c2cc(C(=O)OCC)[nH]c2-c2cc(C)no2)C1 (configuration not stated) | > 100 µM (inactive) | > 100 µM (inactive) | > 100 µM (inactive) | > 100 µM (inactive) | > 100 µM (inactive) | > 100 µM (inactive) | > 100 µM (inactive) | > 100 µM (inactive) | > 100 µM (inactive) | > 100 µM (inactive) | > 100 µM (inactive) | > 100 µM (inactive) | > 100 µM (inactive) | > 100 µM (inactive) | > 100 µM | > 100 µM (inactive) | > 100 µM (inactive) | > 100 µM (inactive) | > 100 µM (inactive) | > 100 µM (inactive) |
| COC(=O)c1c(C#C[Si](C)(C)C)c(C#C[Si](C)(C)C)c(C#C[Si](C)(C)C)c(C#C[Si](C)(C)C)c1C(=O)OC | > 100 µM (inactive) | > 100 µM (inactive) | > 100 µM (inactive) | > 100 µM (inactive) | > 100 µM (inactive) | > 100 µM (inactive) | > 100 µM (inactive) | > 100 µM (inactive) | > 100 µM (inactive) | > 100 µM (inactive) | > 100 µM (inactive) | > 100 µM (inactive) | > 100 µM (inactive) | > 100 µM (inactive) | > 100 µM | > 100 µM (inactive) | > 100 µM (inactive) | > 100 µM (inactive) | > 100 µM (inactive) | > 100 µM (inactive) |
| CC(=O)NC1C(OCc2ccccc2)OC(CO)C(O)C1OCC(=O)N[C@@H](C)C(=O)N[C@H](CCC(=O)NCCNc1ccc([N+](=O)[O-])c2[nH]c3ccccc3c(=O)c12)C(N)=O (some centres not stated) | 19.4 µM (inactive) | 15.4 µM (inactive) | 7.62 µM (inactive) | 22.4 µM (inactive) | 24.8 µM (inactive) | 23 µM (inactive) | 18.7 µM (inactive) | 54.7 µM (inactive) | 27.9 µM (inactive) | 20.1 µM (inactive) | 32.3 µM (inactive) | 29.9 µM (inactive) | 22.8 µM (inactive) | 13.8 µM (inactive) | 13.5 µM | 21.6 µM (inactive) | 37.4 µM (inactive) | 8.99 µM (inactive) | 12.8 µM (inactive) | 15.9 µM (inactive) |
| O=C1CCCCC1C(O)(C(F)(F)F)C(F)(F)Cl (configuration not stated) | > 10 µM (inactive) | > 10 µM (inactive) | > 10 µM (inactive) | > 10 µM (inactive) | > 10 µM (inactive) | > 10 µM (inactive) | > 10 µM (inactive) | > 10 µM (inactive) | > 10 µM (inactive) | > 10 µM (inactive) | > 10 µM (inactive) | > 10 µM (inactive) | > 10 µM (inactive) |  | > 10 µM | > 10 µM (inactive) | > 10 µM (inactive) | > 10 µM (inactive) | > 10 µM (inactive) | > 10 µM (inactive) |
| OCC1OC(c2scc3c(=S)[nH]cnc23)C(O)C1O (configuration not stated) | 5.12 µM (inactive) | 5.45 µM (inactive) | 15.8 µM (inactive) | 20.4 µM (inactive) | 22.7 µM (inactive) | 72.3 µM (inactive) | 8.99 µM (inactive) | 3.63 µM (inactive) | 15 µM (inactive) | 24.5 µM (inactive) | 21 µM (inactive) | 6.59 µM (inactive) | 2.32 µM (inactive) | 6.08 µM (inactive) | 4.1 µM | 0.796 µM (active) | 29 µM (inactive) | 8.22 µM (inactive) | 16 µM (inactive) | 11.2 µM (inactive) |
| CC(CO)CCNc1ncnc2c1ncn2CCC(=O)OC(C)(C)C (configuration not stated) | > 100 µM (inactive) | > 100 µM (inactive) | > 100 µM (inactive) | > 100 µM (inactive) | > 100 µM (inactive) | > 100 µM (inactive) | > 100 µM (inactive) | > 100 µM (inactive) | > 100 µM (inactive) | > 100 µM (inactive) | > 100 µM (inactive) | > 100 µM (inactive) | > 100 µM (inactive) | > 100 µM (inactive) |  | > 100 µM (inactive) | > 100 µM (inactive) | > 100 µM (inactive) | > 100 µM (inactive) | > 100 µM (inactive) |
| CCOC(=O)/C=C(/C(=O)OCC)n1cc(C)c(=O)n(Cc2cnnn2COCCOC(C)=O)c1=O | 13.9 µM (inactive) | 5.24 µM (inactive) | 1.58 µM (inactive) | 14.4 µM (inactive) | 20.7 µM (inactive) | > 58.5 µM (inactive) | 7.31 µM (inactive) | 3.48 µM (inactive) | 23.1 µM (inactive) | 21.3 µM (inactive) | 15.8 µM (inactive) | 5.26 µM (inactive) | 24.9 µM (inactive) | 16.7 µM (inactive) | 7.45 µM | 2.43 µM (inactive) | > 100 µM (inactive) | 24 µM (inactive) | 17.8 µM (inactive) | 3.79 µM (inactive) |
| N=C1N(/N=C/c2ccccn2)/C(=N\c2ccccc2)C(=S)N1c1ccccc1 | 2.97 µM (inactive) | 11 µM (inactive) | 1.92 µM (inactive) | 5.41 µM (inactive) | 4.48 µM (inactive) | 15.4 µM (inactive) | 2.94 µM (inactive) | 1.85 µM (inactive) | 3.56 µM (inactive) | 4.01 µM (inactive) | 6.07 µM (inactive) | 6.44 µM (inactive) | 15.3 µM (inactive) | 4.37 µM (inactive) | 2.54 µM | 10.8 µM (inactive) | 5.81 µM (inactive) | 4.15 µM (inactive) | 13.5 µM (inactive) | 1.42 µM (inactive) |
| CN(C)/C=C/C=C(/C=N/S(=O)(=O)C(F)(F)F)C1C=CN(S(=O)(=O)C(F)(F)F)C=C1 | 27.5 µM (inactive) | 36.6 µM (inactive) | 21.6 µM (inactive) | 25.8 µM (inactive) | 23.5 µM (inactive) |  | 45.8 µM (inactive) | 19.8 µM (inactive) | 36.7 µM (inactive) | 25 µM (inactive) | 23.3 µM (inactive) | 25.6 µM (inactive) | 16.6 µM (inactive) | 29.1 µM (inactive) | 23.4 µM | 32.7 µM (inactive) | 38.2 µM (inactive) | 24.3 µM (inactive) | 26 µM (inactive) | 17.7 µM (inactive) |
| Cc1nc2c(nc1C)-c1c(c3c(n1Cc1ccccc1)C(=O)CCC3)C(=O)C2=O | 4.65 µM (inactive) | 18.8 µM (inactive) | 2.86 µM (inactive) | 2.31 µM (inactive) | 6.34 µM (inactive) | 7.96 µM (inactive) | 3.42 µM (inactive) | 3.09 µM (inactive) | 2.21 µM (inactive) | 2.09 µM (inactive) | 3.69 µM (inactive) | 2.15 µM (inactive) | 3.48 µM (inactive) | 2.08 µM (inactive) | 3.15 µM | 3.4 µM (inactive) | 13.7 µM (inactive) | 4.62 µM (inactive) | 21.4 µM (inactive) | 30.5 µM (inactive) |
| O=C(O)CNc1ccc(C(=O)O)cc1 | > 100 µM (inactive) | > 100 µM (inactive) | > 100 µM (inactive) | > 100 µM (inactive) | > 100 µM (inactive) | > 100 µM (inactive) | > 100 µM (inactive) | 2.85 µM (inactive) | > 100 µM (inactive) | > 100 µM (inactive) | > 100 µM (inactive) | > 100 µM (inactive) | > 100 µM (inactive) | > 100 µM (inactive) | > 100 µM | > 100 µM (inactive) | > 100 µM (inactive) | > 100 µM (inactive) | > 100 µM (inactive) | > 100 µM (inactive) |
